Earlier results in patent US20230339856A1, “NOVEL PHARMACOLOGICAL CHAPERONE COMPOUNDS OF HUMAN ACID ALPHA-GLUCOSIDASE AND THE THERAPEUTIC USE THEREOF” (UNIVERSITÉ GRENOBLE ALPES, priority 2020, published 2023).
pIC50: −log10 of the molar value.

Legend:
[1] = biological target: rhGAA (Homo sapiens (Human), UniProt P10253); conditions: literature value, cited from earlier work; for rhGAA ΔTm: pH 4.3, measured at [compound]=10 times the value of Ki
[2] = biological target: α-glucosidase II of the endoplasmic reticulum (GANAB) (Homo sapiens (Human), UniProt Q14697); conditions: literature value; cited from earlier work
Chain of α-glucosidase II of the endoplasmic reticulum (GANAB) (Q14697 29-944): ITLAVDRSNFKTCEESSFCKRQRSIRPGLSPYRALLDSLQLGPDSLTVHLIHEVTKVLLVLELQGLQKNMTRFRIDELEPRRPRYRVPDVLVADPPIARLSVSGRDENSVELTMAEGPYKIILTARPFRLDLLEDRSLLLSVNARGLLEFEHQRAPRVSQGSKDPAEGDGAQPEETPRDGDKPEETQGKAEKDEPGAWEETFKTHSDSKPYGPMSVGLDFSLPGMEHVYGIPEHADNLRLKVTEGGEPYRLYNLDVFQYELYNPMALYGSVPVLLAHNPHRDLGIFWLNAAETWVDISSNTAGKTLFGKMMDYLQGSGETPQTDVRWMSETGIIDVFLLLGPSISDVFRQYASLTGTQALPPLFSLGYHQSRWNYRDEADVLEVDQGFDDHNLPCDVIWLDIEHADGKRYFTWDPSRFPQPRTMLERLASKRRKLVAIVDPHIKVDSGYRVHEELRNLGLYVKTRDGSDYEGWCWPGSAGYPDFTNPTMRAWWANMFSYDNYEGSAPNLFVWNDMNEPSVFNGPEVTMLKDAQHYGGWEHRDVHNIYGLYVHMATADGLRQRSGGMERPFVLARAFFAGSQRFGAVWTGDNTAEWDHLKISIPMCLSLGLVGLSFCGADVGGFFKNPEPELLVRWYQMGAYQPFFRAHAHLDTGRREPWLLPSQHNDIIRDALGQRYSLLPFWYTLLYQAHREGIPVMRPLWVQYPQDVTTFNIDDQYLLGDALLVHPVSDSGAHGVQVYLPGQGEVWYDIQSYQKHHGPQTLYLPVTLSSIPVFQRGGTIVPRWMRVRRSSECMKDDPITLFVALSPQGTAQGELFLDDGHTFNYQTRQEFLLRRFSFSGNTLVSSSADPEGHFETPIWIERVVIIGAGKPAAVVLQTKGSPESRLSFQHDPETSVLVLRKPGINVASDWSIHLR
Chain of α-glucosidase II of the endoplasmic reticulum (GANAB) (P14314 15-528 partner): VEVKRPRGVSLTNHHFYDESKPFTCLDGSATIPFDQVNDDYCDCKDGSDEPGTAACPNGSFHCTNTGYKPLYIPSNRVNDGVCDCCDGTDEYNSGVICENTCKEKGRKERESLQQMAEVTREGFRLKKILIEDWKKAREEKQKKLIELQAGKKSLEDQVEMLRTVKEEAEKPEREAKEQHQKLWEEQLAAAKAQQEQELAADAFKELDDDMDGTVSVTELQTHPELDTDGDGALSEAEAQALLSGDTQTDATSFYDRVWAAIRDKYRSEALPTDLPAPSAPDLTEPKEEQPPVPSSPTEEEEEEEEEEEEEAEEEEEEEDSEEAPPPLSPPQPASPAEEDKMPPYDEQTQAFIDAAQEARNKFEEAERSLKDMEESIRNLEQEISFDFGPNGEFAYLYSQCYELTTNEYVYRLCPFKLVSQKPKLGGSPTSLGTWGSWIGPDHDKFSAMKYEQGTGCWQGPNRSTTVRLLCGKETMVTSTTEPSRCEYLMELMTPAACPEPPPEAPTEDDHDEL

Compound	rhGAA ΔTm [1]	rhGAA ΔTm at pH 7.4 [1]	pIC50 [2]
OC[C@H]1NC[C@H](O)[C@@H](O)[C@@H]1O [DNJ, deoxynojirimycin]	2.7 (pH 4.3)*^b ° C.	15^c^ ° C.	
CCCCN1C[C@H](O)[C@@H](O)[C@H](O)[C@H]1CO [NB-DNJ]	6.2 (pH 4.3)*^b ° C.	12^d^ ° C.	4.82
